Assay results: patent US11241441B2, “Formulations of lixivaptan for the treatment of polycystic disease” (PALLADIO BIOSCIENCES, INC., priority 2017, dated 2022)
Where two headings read alike, the source gives them in different places.

How the values were obtained:
[1] = Single 100 mg oral dose study in ESRD and normal renal function subjects: pharmacokinetics and tolerability; type: in vivo, human; conditions: for AUC(0-inf) / AUC(0-t) / Cmax / Vd/F / half-life: po, 100 mg; for Vd/F: read-out: VZ/F Mean; for half-life: read-out: t1/2 Median (converted)
Method: A clinical study was undertaken to determine the pharmacokinetics (PK) of lixivaptan in renally impaired subjects. In this study, the PK of lixivaptan following a single 100 mg oral dose of lixivaptan was evaluated in subjects with end-stage renal disease (ESRD) and control subjects with normal renal function. Pharmacodynamic (PD) evaluations, including vasopressin concentration, serum sodium concentration, urine volume, and urine osmolality were assessed. Overall total lixivaptan exposure was, on average, 32 and 31% lower in ESRD subjects compared to subjects with normal renal function, as assessed by AUC0-∞ and AUC0-t, respectively. Similarly, peak total lixivaptan concentrations were, on average, 31% lower in subjects with ESRD.

cAMP = experiment: Cyclic AMP content of whole kidneys of PCK rats (Direct cAMP ELISA); type: in vivo, rat; conditions: for cAMP: whole kidney
Method: Experimental animals and study design. PCK rats were divided into control and treatment groups at four weeks of age (n=59, ˜10 animals per treatment group and gender). Lixivaptan was dissolved in DMSO and added to ground rodent chow (Regrind Labdiet 5053) at 0.5% or 1.0% concentration (w/w) by homogenous mixing, whereas control animals received the same diet without lixivaptan. Animals were exposed to control- or lixivaptan-diet for eight weeks and were sacrificed at twelve weeks of age.
Experimental Protocol. Twenty-four hour urine outputs in metabolic cages were collected twice at 6 and 9 weeks of age (Study week 3 and 6, respectively). At the end of the dosing period, the animals were weighed and anesthetized with ketamine 90 mg/kg and xylazine 10 mg/kg, IP. Blood samples were obtained by cardiac puncture for determination of plasma electrolytes, creatinine and plasma urea levels. The right kidney and part of the liver were placed into pre-weighed vials containing 10% formaldehyde in phosphate buffer (pH 7.4). The tissues were embedded in paraffin for histological studies. The left kidneys were immediately frozen in liquid nitrogen for determination of cAMP.
The kidneys were weighed and ground to fine powder under liquid nitrogen in a stainless steel mortar and homogenized in 10 volumes of 0.1M HCl. The protein concentration was measured by using BCA Protein Assay Kit (Pierce, Ill.). After centrifugation at 600 g for 10 min, the supernatant was further diluted in 0.1M HCl and run directly in the assay or stored frozen for later analysis. The cAMP content was assessed by Direct cAMP ELISA kit, according to the manufacturer's instructions (Enzo Life Sciences, Inc. Farmingdale, N.Y.). Samples were taken in triplicate. The results were expressed in pmol/mg of protein.

[2] = In-clinic pharmacokinetic study: adverse events, serum osmolality, urine output; type: in vivo, human
Method: Subjects received lixivaptan at total daily doses of 100 mg, 200 mg, or 400 mg (administered as 50, 100, and 200 mg Q12H). Subjects were to be enrolled into the study in two cohorts of 30 subjects, but actual cohort numbers were 23 and 34 subjects. Of the 57 subjects enrolled in the study, 27 were female (47.4%) and 30 were male (52.6%). The majority of subjects were White (35/57, 61.4%) and of Hispanic or Latino ethnicity (46/57, 80.7%). The overall mean age of subjects in the study was 33.6 (8.31) years, and the overall mean body mass index for subjects was 26.2 (3.79). There were to be approximately 20 subjects enrolled per dose level. An approximately equal number of males and females were enrolled at each dose level such that neither gender was represented by fewer than 8 subjects. The starting date for each cohort subjects was staggered by 7 days for logistical purposes. Screening evaluations were performed within 28 days prior to Day 1.
The following doses of lixivaptan were administered to subjects in this study: (a) Lixivaptan 100 mg, administered as 50 mg [1×50 mg capsule] every 12 hours×15 doses; (b) lixivaptan 200 mg, administered as 100 mg [2×50 mg capsules] every 12 hours×15 doses; and (c) Lixivaptan 400 mg, administered as 200 mg [4×50 mg capsules] every 12 hours×15 doses.
Prior to the morning doses of lixivaptan on Days 1 and 8, subjects fasted for approximately 10 hours prior to lixivaptan administration and 4 hours after lixivaptan administration. All other doses were administered under fasting conditions, either 2 hours before or 2 hours after meals. The study medication was administered with 240 milliliters (mL) room temperature water. Subjects were not to receive any oral fluids, other than those used to administer the dose, for 1 hour before and 1 hour after dose administration. Subjects remained sitting or semi-supine, except to void, for 6 hours following the first two doses. While in the clinic, the subjects refrained from strenuous physical activity.

vasopressin V2 receptor = target: T1, vasopressin V2 receptor (Homo sapiens, UniProt P30518); experiment: Uosm in clinical studies in healthy subjects and various patient populations; type: in vivo; conditions: healthy subjects, hyponatremia patients, ESRD patients
T1 construct: Lixivaptan antagonizes the effects of vasopressin that are mediated by the V2 receptor; from tissue; host or cells: living human subjects (in vivo clinical studies); the receptor is the subjects' own and no tissue was isolated
Method: Lixivaptan in healthy volunteers was tested in a randomized, double-blind, placebo-controlled, ascending multiple-dose, safety and tolerance clinical study in 98 healthy male subjects.
Subjects with Syndrome of Inappropriate Anti-Diuretic Hormone (SIADH) secretion were tested in a randomized, double-blind, placebo-controlled, ascending single-dose, safety and tolerance study.

Measured Log P = type: physicochemical
[3] = Clinical observation of ALT elevations, 400 mg BID for 7 days; type: in vivo, human; conditions: 67 individuals
[4] = human, in vivo, single 100 mg oral dose, ESRD
[5] = human, in vivo, single 100 mg oral dose, Normal
[6] = single 100 mg oral dose, Normal

T1 sequence (P30518 whole entry): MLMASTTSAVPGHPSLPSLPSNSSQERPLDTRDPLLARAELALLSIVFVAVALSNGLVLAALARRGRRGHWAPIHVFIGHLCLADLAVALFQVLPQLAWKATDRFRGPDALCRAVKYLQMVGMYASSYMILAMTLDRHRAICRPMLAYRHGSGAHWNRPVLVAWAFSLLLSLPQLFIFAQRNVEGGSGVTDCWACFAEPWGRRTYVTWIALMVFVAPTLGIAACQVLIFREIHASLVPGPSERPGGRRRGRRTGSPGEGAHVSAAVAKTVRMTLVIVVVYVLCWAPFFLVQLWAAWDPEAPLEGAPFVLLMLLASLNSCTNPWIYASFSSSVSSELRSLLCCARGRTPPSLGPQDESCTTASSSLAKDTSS

Cc1ccc(F)cc1C(=O)Nc1ccc(C(=O)N2Cc3cccn3Cc3ccccc32)c(Cl)c1 [Lixivaptan, 5-fluoro-2-methyl-N-[4-(5H-pyrrolo[2,1-C] [1,4]benzodiazepin-10(11H)-ylcarbonyl)-3-chlorophenyl]benzamide]
tolerability of single doses ([1]; both groups (normal, ESRD)): well tolerated | AUC(0-inf) [1, 4]: 856 ng·h/mL | AUC(0-t) [1, 4]: 809 ng·h/mL | Cmax [1, 4]: 238 ng/mL | Vd/F [1, 4]: 2740 L | half-life [1, 4]: 13.3 h | AUC(0-t) [1, 5]: 1200 ng·h/mL | Cmax [1, 5]: 383 ng/mL | AUC(0-inf) ([1]; human, in vivo, single 100 mg oral dose, Normal renal function): 1290 ng·h/mL | Vd/F [1, 5]: 1750 L | half-life [1, 5]: 12 h | Tmax ([1]; human, in vivo, single 100 mg oral dose, Normal, read-out: tmax Median): 1 h | peak total lixivaptan concentrations lower in subjects with ESRD ([1]; single 100 mg oral dose): 31% | total lixivaptan exposure (AUC0-t) lower in ESRD subjects compared to normal renal function ([1]; single 100 mg oral dose): 31% | total lixivaptan exposure (AUC0-∞) lower in ESRD subjects compared to normal renal function ([1]; single 100 mg oral dose): 32% | CL/F Mean ([1]; single 100 mg oral dose, ESRD): 137 L/h | Lambdaz Median ([1]; single 100 mg oral dose, ESRD): 0.05752 h⁻¹ | CL/F Mean [1, 6]: 94.2 L/h | Lambdaz Median [1, 6]: 0.06035 h⁻¹ | reduction in kidney cAMP levels (cAMP; PCK rats, 0.5% lixivaptan, compared to control): 23% | cAMP (cAMP; PCK rats F, 0.5% Lixivaptan): 15.0 ± 4.6 pmol/mg protein | cAMP (cAMP; PCK rats F, 1.0% Lixivaptan): 23.6 ± 8.1 pmol/mg protein | cAMP (cAMP; PCK rats M, 0.5% Lixivaptan): 16.5 ± 5.1 pmol/mg protein | cAMP (cAMP; PCK rats M, 1.0% Lixivaptan): 24.0 ± 12.0 pmol/mg protein | headache considered possibly or probably related to study drug ([2]; 100 mg group): 2 subject | headache considered possibly or probably related to study drug ([2]; 200 mg group): 1 subject | asthenia considered possibly or probably related to study drug ([2]; 400 mg group): 1 subject | headache considered possibly or probably related to study drug ([2]; 400 mg group): 1 subject | vomiting considered possibly or probably related to study drug ([2]; 400 mg group): 1 subject | urine output ([2]; Days 1-8): increased | serum osmolality ([2]; during the study, dose related): mildly increased | tolerability ([2]; healthy subjects, 50-200 mg Q12H for 7.5 days): well tolerated | treatment-emergent AE chest discomfort ([2]; of the 57 enrolled subjects): 2 subjects | treatment-emergent AE constipation ([2]; of the 57 enrolled subjects): 3 subjects | treatment-emergent AE headache ([2]; of the 57 enrolled subjects): 7 subjects | urinary osmolality suppressed to levels below target threshold (vasopressin V2 receptor): < 300 mOsm/kg | logP (Measured Log P): 1 | ALT elevations in treated individuals [3]: no ALT elevations
